Results reported in patent US20100166659A1, “USE OF CYANINE DYES FOR THE DIAGNOSIS OF PROLIFERATIVE DISEASES” (priority 2005, published 2010).
Like-named read-outs stand apart in the source and are kept apart here.

What was measured:
[1] = Determination of fluorescence quantum yield of tricarbocyanine dyes; assay type: physicochemical; conditions: 2 μM
Experimental: Compounds 6-4, 5-36, 5-29, 5-41, NIR96009, NIR96005 and ICG (see Table 1) were tested for their fluorescence quantum yields at a concentration of 2 μM in either water or plasma. It is apparent from Table 2 that a substitution in the middle of the tricarbocyanine dye improves fluorescence quantum yield in both media.

[2] = system: tumors; conditions: cited from earlier work
[3] = remark *see Ref. (Licha et al. 1996), cited from earlier work

Fluorescence max. (nm) In plasma [1] [nm] | Fluorescence quantum yield (%) In plasma [1] [%] | Molecule | Fluorescence quantum yield (%) In water [1] [%] | Fluorescence max. (nm) In plasma [3] [nm] | Fluorescence quantum yield (%) In plasma [3] [%] | Fluorescence quantum yield (%) In water [3] [%] | also measured
813 | 9.8 | CC1(C)C(/C=C/C=C(/C=C/C=C2/N(CCCCS(=O)(=O)O)c3ccc(S(=O)(=O)[O-])cc3C2(C)C)CCS(=O)(=O)O)=[N+](CCCCS(=O)(=O)O)c2ccc(S(=O)(=O)O)cc21 [Compound 5-29] | 8.2 |  |  |  | 
 |  | CC(/C=C/C=C1/N(CCS(=O)(=O)O)c2ccc(S(=O)(=O)[O-])cc2C1(C)C)=C\C=C\C1=[N+](CCS(=O)(=O)O)c2ccc(S(=O)(=O)O)cc2C1(C)C [Compound 5-36] | 12 |  |  |  | 
799 | 19 | CC1(C)C(/C=C/C2=C(c3ccccc3)C(=C/C=C3/N(CCCCS(=O)(=O)O)c4ccc(S(=O)(=O)[O-])cc4C3(C)C)/CCC2)=[N+](CCCCS(=O)(=O)O)c2ccc(S(=O)(=O)O)cc21 [Compound 5-41] | 10 |  |  |  | 
 |  | CC1(C)C(/C=C/C=C/C=C/C=C2/N(CCCCS(=O)(=O)O)c3ccc4ccccc4c3C2(C)C)=[N+](CCCCS(=O)(=O)[O-])c2ccc3ccccc3c21 [ICG, indocyanine green] |  | 829 | 3 | 1 | Detection limit, tumor size ([2]; prior-art dye): 1 cm
 |  | CC1(C)C(/C=C/C=C/C=C/C=C2/N(CCCCS(=O)(=O)O)c3ccc(C(=O)O)cc3C2(C)C)=[N+](CCCCS(=O)(=O)[O-])c2ccc(C(=O)O)cc21 [NIR96005] |  | 795 | 7.2 | 5.6 | 
 |  | CC1(C)C(/C=C/C=C/C=C/C=C2/N(CCCCS(=O)(=O)O)c3ccc(C(=O)NC(CC(=O)O)C(=O)O)cc3C2(C)C)=[N+](CCCCS(=O)(=O)[O-])c2ccc(C(=O)NC(CC(=O)O)C(=O)O)cc21 (stereo not drawn) [NIR96009] |  | 786 | 7.8 | 5.8 | 
 |  | indocyanine green [ICG] |  |  |  |  | Size of ductal breast carcinomas that could be detected ([2]; DOT, 0.25 mg/kg body weight): ≥ 1 cm

Molecule | Fluorescence max. (nm) In plasma [1] [nm] | Fluorescence quantum yield (%) In plasma [1] [%] | Fluorescence quantum yield (%) In water [1] [%] | Fluorescence max. (nm) In plasma [3] [nm] | Fluorescence quantum yield (%) In plasma [3] [%] | Fluorescence quantum yield (%) In water [3] [%] | also measured
CC(/C=C/C=C1/N(CCS(=O)(=O)O)c2ccc(S(=O)(=O)[O-])cc2C1(C)C)=C\C=C\C1=[N+](CCS(=O)(=O)O)c2ccc(S(=O)(=O)O)cc2C1(C)C [SF64] | 787 | 17 | 11 |  |  |  | 
